# Measurements published in ChEMBL document CHEMBL3885861, “Open TG-GATES”.
# Organism: Rattus norvegicus
# Assay: Open TG-GATES - Regimen: Daily Repeat
# Type: toxicity, organism-based, Sprague-Dawley
# Design: regimen Daily Repeat, gender Male, age 6 weeks
# Conditions: in vivo, po, route gavage; for KIDNEY_L / KIDNEY_R / KIDNEY_TOTAL: tissue Kidney; for AST / CRE / GLC / IP / K / LDH / RALB / TBIL / TC / TP / gamma-GTP: tissue Plasma
# [1] = 0 mg/kg, 72 h, dose level Control, time 3 day
# [2] = 0 mg/kg, 72 h, tissue Blood, dose level Control, time 3 day
# [3] = 0 mg/kg, […], dose level Control, time 7 day
# [4] = 0 mg/kg, […], dose level Control, time 14 day
# [5] = 0 mg/kg, […], dose level Control, time 28 day
# [6] = 0 mg/kg, […], tissue Blood, dose level Control, time 7 day
# [7] = 0 mg/kg, […], tissue Blood, dose level Control, time 14 day
# [8] = 0 mg/kg, […], tissue Blood, dose level Control, time 28 day
# [9] = 10 mg/kg, 72 h, dose level Low, time 3 day
# [10] = 10 mg/kg, 72 h, tissue Blood, dose level Low, time 3 day
# [11] = 10 mg/kg, […], dose level Low, time 7 day
# [12] = 10 mg/kg, […], dose level Low, time 14 day
# [13] = 10 mg/kg, […], dose level Low, time 28 day
# [14] = 10 mg/kg, […], tissue Blood, dose level Low, time 7 day
# [15] = 10 mg/kg, […], tissue Blood, dose level Low, time 14 day
# [16] = 10 mg/kg, […], tissue Blood, dose level Low, time 28 day
smiles,measurement,setting,value
CN(C)CCCN1c2ccccc2CCc2ccccc21 [IMIPRAMINE],TERMINAL_BW,[1],230.9 g
same,APTT,[2],16.3 s
same,Bas,[2],0%
same,Eos,[2],1%
same,Fbg,[2],278.8 mg/dL
same,Ht,[2],40.6%
same,Lym,[2],77.8%
same,MCHC,[2],32.6%
same,MCV,[2],63.2 fL
same,Mono,[2],3%
same,PT,[2],15.8 s
same,Plat,[2],111.4 x10_4/uL
same,RBC,[2],642.2 x10_4/ul
same,Ret,[2],6.7%
same,KIDNEY_L,[1],1 g
same,KIDNEY_R,[1],1 g
same,KIDNEY_TOTAL,[1],2 g
same,AST,[1],68.2 IU/L
same,CRE,[1],0.2 mg/dL
same,GLC,[1],180.6 mg/dL
same,IP,[1],7.7 mg/dL
same,K,[1],4.2 meq/L
same,LDH,[1],64.8 IU/L
same,RALB,[1],2.6 g/dL
same,TBIL,[1],0.056 mg/dL
same,TC,[1],79.2 mg/dL
same,TP,[1],5.7 g/dL
same,gamma-GTP,[1],1 IU/L
same,TERMINAL_BW,[3],270.9 g
same,TERMINAL_BW,[4],328.3 g
same,TERMINAL_BW,[5],419.8 g
same,APTT,[6],15.4 s
same,Bas,[6],0.2%
same,Eos,[6],1%
same,Fbg,[6],292 mg/dL
same,Ht,[6],41.2%
same,Lym,[6],77.4%
same,MCHC,[6],32.9%
same,MCV,[6],63.5 fL
same,Mono,[6],2.4%
same,PT,[6],15.4 s
same,Plat,[6],123.5 x10_4/uL
same,RBC,[6],649.4 x10_4/ul
same,Ret,[6],6.1%
same,APTT,[7],16 s
same,Bas,[7],0.4%
same,Eos,[7],0.8%
same,Fbg,[7],279.4 mg/dL
same,Ht,[7],42.1%
same,Lym,[7],79.2%
same,MCHC,[7],33.2%
same,MCV,[7],60.6 fL
same,Mono,[7],1.8%
same,PT,[7],15.6 s
same,Plat,[7],119.8 x10_4/uL
same,RBC,[7],695.6 x10_4/ul
same,Ret,[7],4.6%
same,APTT,[8],15.9 s
same,Bas,[8],0%
same,Eos,[8],1.2%
same,Fbg,[8],294.2 mg/dL
same,Ht,[8],44.1%
same,Lym,[8],80.6%
same,MCHC,[8],33.5%
same,MCV,[8],57.9 fL
same,Mono,[8],2.2%
same,PT,[8],15.4 s
same,Plat,[8],94.4 x10_4/uL
same,RBC,[8],761.4 x10_4/ul
same,Ret,[8],2.4%
same,KIDNEY_L,[3],1.1 g
same,KIDNEY_R,[3],1.1 g
same,KIDNEY_TOTAL,[3],2.2 g
same,KIDNEY_L,[4],1.3 g
same,KIDNEY_R,[4],1.2 g
same,KIDNEY_TOTAL,[4],2.5 g
same,KIDNEY_L,[5],1.4 g
same,KIDNEY_R,[5],1.4 g
same,KIDNEY_TOTAL,[5],2.9 g
same,AST,[3],66.2 IU/L
same,CRE,[3],0.2 mg/dL
same,GLC,[3],185.6 mg/dL
same,IP,[3],7.7 mg/dL
same,K,[3],4 meq/L
same,LDH,[3],114 IU/L
same,RALB,[3],2.6 g/dL
same,TBIL,[3],0.056 mg/dL
same,TC,[3],81.4 mg/dL
same,TP,[3],5.9 g/dL
same,gamma-GTP,[3],0.4 IU/L
same,AST,[4],63.6 IU/L
same,CRE,[4],0.2 mg/dL
same,GLC,[4],183.8 mg/dL
same,IP,[4],6.8 mg/dL
same,K,[4],4.2 meq/L
same,LDH,[4],97.4 IU/L
same,RALB,[4],2.6 g/dL
same,TBIL,[4],0.05 mg/dL
same,TC,[4],72.6 mg/dL
same,TP,[4],5.9 g/dL
same,gamma-GTP,[4],1 IU/L
same,AST,[5],55.6 IU/L
same,CRE,[5],0.2 mg/dL
same,GLC,[5],188.8 mg/dL
same,IP,[5],6.9 mg/dL
same,K,[5],3.9 meq/L
same,LDH,[5],43.4 IU/L
same,RALB,[5],2.8 g/dL
same,TBIL,[5],0.056 mg/dL
same,TC,[5],68 mg/dL
same,TP,[5],6.3 g/dL
same,gamma-GTP,[5],0.6 IU/L
same,TERMINAL_BW,[9],229.5 g
same,APTT,[10],16.1 s
same,Bas,[10],0%
same,Eos,[10],1%
same,Fbg,[10],294 mg/dL
same,Ht,[10],41.4%
same,Lym,[10],82.6%
same,MCHC,[10],32.5%
same,MCV,[10],65.4 fL
same,Mono,[10],2.8%
same,Neu,[10],12.8%
same,PT,[10],15.9 s
same,Plat,[10],115.2 x10_4/uL
same,RBC,[10],633 x10_4/ul
same,Ret,[10],5.6%
same,KIDNEY_L,[9],1 g
same,KIDNEY_R,[9],1 g
same,KIDNEY_TOTAL,[9],2 g
same,AST,[9],67 IU/L
same,CRE,[9],0.2 mg/dL
same,GLC,[9],185.4 mg/dL
same,IP,[9],7.7 mg/dL
same,K,[9],4.1 meq/L
same,LDH,[9],63.4 IU/L
same,RALB,[9],2.6 g/dL
same,TBIL,[9],0.06 mg/dL
same,TC,[9],81.6 mg/dL
same,TP,[9],5.8 g/dL
same,gamma-GTP,[9],1 IU/L
same,TERMINAL_BW,[11],262.8 g
same,TERMINAL_BW,[12],310.9 g
same,TERMINAL_BW,[13],402.9 g
same,APTT,[14],15.6 s
same,Bas,[14],0%
same,Eos,[14],1.2%
same,Fbg,[14],291.6 mg/dL
same,Ht,[14],40.2%
same,Lym,[14],80%
same,MCHC,[14],33.3%
same,MCV,[14],62.5 fL
same,Mono,[14],1.8%
same,PT,[14],15.9 s
same,Plat,[14],120.1 x10_4/uL
same,RBC,[14],644.6 x10_4/ul
same,Ret,[14],4.8%
same,APTT,[15],16.5 s
same,Bas,[15],0.2%
same,Eos,[15],0.8%
same,Fbg,[15],281.2 mg/dL
same,Ht,[15],41.8%
same,Lym,[15],83.2%
same,MCHC,[15],33.8%
same,MCV,[15],60.5 fL
same,Mono,[15],2.2%
same,PT,[15],16.3 s
same,Plat,[15],108.3 x10_4/uL
same,RBC,[15],691.6 x10_4/ul
same,Ret,[15],4.1%
same,APTT,[16],17.3 s
same,Bas,[16],0.4%
same,Eos,[16],1.4%
same,Fbg,[16],284.6 mg/dL
same,Ht,[16],43.7%
same,Lym,[16],81.4%
same,MCHC,[16],34%
same,MCV,[16],56.5 fL
same,Mono,[16],2.4%
same,PT,[16],16.4 s
same,Plat,[16],96.2 x10_4/uL
same,RBC,[16],773.2 x10_4/ul
same,Ret,[16],2.3%
same,KIDNEY_L,[11],1.1 g
same,KIDNEY_R,[11],1.1 g
same,KIDNEY_TOTAL,[11],2.1 g
same,KIDNEY_L,[12],1.3 g
same,KIDNEY_R,[12],1.2 g
same,KIDNEY_TOTAL,[12],2.5 g
same,KIDNEY_L,[13],1.4 g
same,KIDNEY_R,[13],1.3 g
same,KIDNEY_TOTAL,[13],2.7 g
same,AST,[11],63.8 IU/L
same,CRE,[11],0.2 mg/dL
same,GLC,[11],182.6 mg/dL
same,IP,[11],7.4 mg/dL
same,K,[11],4.2 meq/L
same,LDH,[11],123.4 IU/L
same,RALB,[11],2.6 g/dL
same,TBIL,[11],0.05 mg/dL
same,TC,[11],75.8 mg/dL
same,TP,[11],5.9 g/dL
same,gamma-GTP,[11],0.8 IU/L
same,AST,[12],66.4 IU/L
same,CRE,[12],0.2 mg/dL
same,GLC,[12],175.6 mg/dL
same,IP,[12],6.8 mg/dL
same,K,[12],4.3 meq/L
same,LDH,[12],62.8 IU/L
same,RALB,[12],2.7 g/dL
same,TBIL,[12],0.048 mg/dL
same,TC,[12],72 mg/dL
same,TP,[12],6.2 g/dL
same,gamma-GTP,[12],0.4 IU/L
same,AST,[13],62.2 IU/L
same,CRE,[13],0.2 mg/dL
same,GLC,[13],183.2 mg/dL
same,IP,[13],6.9 mg/dL
same,K,[13],3.8 meq/L
same,LDH,[13],53.6 IU/L
same,RALB,[13],2.8 g/dL
same,TBIL,[13],0.052 mg/dL
same,TC,[13],64.2 mg/dL
same,TP,[13],6.3 g/dL
same,gamma-GTP,[13],1 IU/L
